Measurements taken from PMC3512521, “Synthetic metabolic engineering-a novel, simple technology for designing a chimeric metabolic pathway” (Microbial Cell Factories, 2012).
Each block holds one compound with its values, some of them ahead of it.

Assays:
Format in all cases: biochemical
[1] = target: T1, PFK (6-phosphofructokinase) (Thermus thermophilus, UniProt P21777); experiment: coupled assay, NAD+ reduction at […] nm; conditions: 0.1 mM substrate, 0.2 mM ATP, 5 mM MgCl2, 0.5 mM MnCl2, pH 7.0, 50 °C
T1 construct: gene pfkA; heat-treated lysate of recombinant E. coli; native form, untagged; Riken HB8 expression plasmid
T1 sequence (P21777 whole entry): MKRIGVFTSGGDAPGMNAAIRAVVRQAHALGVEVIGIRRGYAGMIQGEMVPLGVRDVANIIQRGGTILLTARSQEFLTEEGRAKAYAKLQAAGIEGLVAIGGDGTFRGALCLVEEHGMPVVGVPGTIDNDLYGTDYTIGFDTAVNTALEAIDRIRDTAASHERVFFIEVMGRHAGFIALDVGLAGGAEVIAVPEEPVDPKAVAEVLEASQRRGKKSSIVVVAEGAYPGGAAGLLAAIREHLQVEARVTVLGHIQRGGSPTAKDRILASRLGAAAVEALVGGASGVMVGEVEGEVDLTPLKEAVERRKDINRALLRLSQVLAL

[2] = target: T2, malate/lactate dehydrogenase (MLDH) (Thermus thermophilus, UniProt Q53W84); experiment: NADH oxidation at […] nm; conditions: 0.2 mM pyruvate, 0.2 mM NADH, 5 mM MgCl2, 0.5 mM MnCl2, pH 7.0, 50 °C
T2 construct: gene TTHB078; heat-treated lysate of recombinant E. coli; native form, untagged; Riken HB8 expression plasmid
T2 sequence (Q53W84 entry or part of it): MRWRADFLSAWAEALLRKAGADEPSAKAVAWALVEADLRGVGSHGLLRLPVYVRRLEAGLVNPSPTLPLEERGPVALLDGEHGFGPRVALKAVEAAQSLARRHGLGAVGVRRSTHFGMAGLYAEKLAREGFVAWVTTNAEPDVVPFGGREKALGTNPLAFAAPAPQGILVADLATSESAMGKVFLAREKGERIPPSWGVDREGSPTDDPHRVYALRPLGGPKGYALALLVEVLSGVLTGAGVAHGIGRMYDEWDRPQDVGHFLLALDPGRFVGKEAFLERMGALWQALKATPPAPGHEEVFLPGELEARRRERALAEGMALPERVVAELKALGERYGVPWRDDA

[3] = target: T3, Thermus lactate dehydrogenase (LDH) (Thermus thermophilus, UniProt Q5SJA1); experiment: spectrophotometric NADH oxidation at […] nm; conditions: 0.2 mM pyruvate, 0.2 mM NADH, pH 7.0, 50 °C; inhibitor
T3 construct: heat-treated (70 °C, 30 min) lysate of recombinant E. coli; native form, untagged
T3 sequence (Q5SJA1 whole entry): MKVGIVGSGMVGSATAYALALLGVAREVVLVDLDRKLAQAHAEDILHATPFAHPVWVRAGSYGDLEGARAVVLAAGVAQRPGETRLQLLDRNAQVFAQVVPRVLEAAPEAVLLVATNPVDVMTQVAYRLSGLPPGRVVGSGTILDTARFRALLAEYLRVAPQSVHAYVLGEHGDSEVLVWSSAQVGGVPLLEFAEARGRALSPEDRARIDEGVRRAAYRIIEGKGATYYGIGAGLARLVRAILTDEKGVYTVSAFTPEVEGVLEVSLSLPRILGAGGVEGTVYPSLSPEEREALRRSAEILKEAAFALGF

[4] = target: T4, FBA (fructose-bisphosphate aldolase) (Thermus thermophilus, UniProt Q5SHF7); experiment: coupled assay, NAD+ reduction at […] nm; conditions: 0.1 mM substrate, 5 mM MgCl2, 0.5 mM MnCl2, pH 7.0, 50 °C
T4 construct: gene TTHA1773; heat-treated lysate of recombinant E. coli; native form, untagged; Riken HB8 expression plasmid
T4 sequence (Q5SHF7 1-305): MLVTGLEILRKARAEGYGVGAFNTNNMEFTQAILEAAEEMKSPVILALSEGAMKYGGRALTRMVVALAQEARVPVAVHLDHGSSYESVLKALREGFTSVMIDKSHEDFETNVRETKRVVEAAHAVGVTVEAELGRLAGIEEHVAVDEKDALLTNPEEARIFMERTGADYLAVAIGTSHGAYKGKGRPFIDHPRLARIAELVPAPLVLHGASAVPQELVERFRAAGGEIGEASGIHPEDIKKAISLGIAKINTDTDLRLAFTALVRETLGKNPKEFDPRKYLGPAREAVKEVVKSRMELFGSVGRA

coupled assay, NAD+ reduction at 340 nm [1]: phosphorylation of F6P catalyzed by PFK
Structure (SMILES): Nc1ncnc2c1ncn2[C@@H]1O[C@H](COP(=O)(O)OP(=O)(O)OP(=O)(O)O)[C@@H](O)[C@H]1O [ATP]

Structure (SMILES): CC(=O)C(=O)O [pyruvate]
NADH oxidation at 340 nm [2]: The enzyme was confirmed to show pyruvate reducing activity

% decrease in activity at 1 mM [3]: 95%
Structure (SMILES): NC(=O)c1ccc[n+]([C@@H]2O[C@H](COP(=O)(O)OP(=O)(O)OC[C@H]3O[C@@H](n4cnc5c(N)ncnc54)[C@H](O)[C@@H]3O)[C@@H](O)[C@H]2O)c1 [NAD^+]

Structure (SMILES): O=P(O)(O)OC[C@H]1OC(O)(COP(=O)(O)O)[C@@H](O)[C@@H]1O (stereo partly shown) [fructose-1,6-bisphosphate]
coupled assay, NAD+ reduction at 340 nm [4]: fructose-6-phosphate, fructose-1,6-bisphosphate, dihydroxyacetone phosphate
